The first experiment has as its target histone deacetylase (HDAC Enzyme). As to the kind of experiment: Inhibition of Histone Deacetylase Enzymatic Activity (Boc-Lys(Ac)-AMC, Fluor-de-Lys developer). The class given is biochemical. The settings on record: Table 9; read-out: HDAC Inhibition (IC50 μM) HDAC Enzyme. How it is done: The following protocol is used to assay the compounds of the invention.
The mixture is pre-incubated for 5 minutes at room temperature. The reaction is started by bringing the temperature to 37° C. and adding 16 μl substrate. Total reaction volume is 50 μl.
In the Tables 8, 9 and 10, A≦[…]<B≦0.1 μM; 0.1 μM<C≦1 μM; and 1 μM<D≦10 μM.
For the compound `O=C(NO)c1cnc(N2C[C@@H]3C[C@H]2CN3c2noc3ccccc23)nc1` [2-((1S,4S)-5-(benzo[d]isoxazol-3-yl)-2,5-diazabicyclo[2.2.1]heptan-2-yl)-N-hydroxypyrimidine-5-carboxamide], the IC50 (commonly the concentration at which inhibition is half-maximal) is less than 0.05 µM. The same measure, in the same setting: the value for `O=C(NO)c1cnc(N2C[C@@H]3C[C@H]2CN3C(c2ccccc2)c2ccccc2)nc1` [2-((1S,4S)-5-benzhydryl-2,5-diazabicyclo[2.2.1]heptan-2-yl)-N-hydroxypyrimidine-5-carboxamide] was less than 0.05 µM; that for `O=C(NO)c1cnc(N2C[C@@H]3C[C@H]2CN3C(=O)c2ccccc2)nc1` [2-((1S,4S)-5-benzoyl-2,5-diazabicyclo[2.2.1]heptan-2-yl)-N-hydroxypyrimidine-5-carboxamide] was less than 0.05 µM; that for `O=C(NO)c1cnc(N2C[C@@H]3C[C@H]2CN3Cc2ccccc2)nc1` [2-((1S,4S)-5-benzyl-2,5-diazabicyclo[2.2.1]heptan-2-yl)-N-hydroxypyrimidine-5-carboxamide] was 0.1 to 1 µM. Same read-out and setting: the value for `O=C(NO)c1ccc(N2C[C@@H]3C[C@H]2CN3c2cccc(C(F)(F)F)c2)cc1F` [2-fluoro-N-hydroxy-4-((1S,4S)-5-(3-(trifluoromethyl)phenyl)-2,5-diazabicyclo[2.2.1]heptan-2-yl)benzamide] was 0.1 to 1 µM; that for `N#Cc1cccc(N2C[C@@H]3C[C@H]2CN3c2ccc(C(=O)NO)cc2)c1` [4-((1S,4S)-5-(3-cyanophenyl)-2,5-diazabicyclo[2.2.1]heptan-2-yl)-N-hydroxybenzamide] was 0.1 to 1 µM. As for `O=C(NO)c1cnc(N2C[C@@H]3C[C@H]2CN3C(=O)OCc2ccccc2)nc1` [(1S,4S)-benzyl 5-(5-(hydroxycarbamoyl)pyrimidin-2-yl)-2,5-diazabicyclo[2.2.1]heptane-2-carboxylate], the IC50 is less than 0.05 µM. The same measure, in the same setting: the value for `O=C(NO)c1cnc(N2C[C@@H]3C[C@H]2CN3C(=O)OC2CCCC2)nc1` [(1S,4S)-cyclopentyl 5-(5-(hydroxycarbamoyl)pyrimidin-2-yl)-2,5-diazabicyclo[2.2.1]heptane-2-carboxylate] was less than 0.05 µM; that for `O=C(NO)c1cnc(N2C[C@@H]3C[C@H]2CN3C(=O)OCC2CC2)nc1` [(1S,4S)-cyclopropylmethyl 5-(5-(hydroxycarbamoyl)pyrimidin-2-yl)-2,5-diazabicyclo[2.2.1]heptane-2-carboxylate] was less than 0.05 µM.

Consider `CC(C)COC(=O)N1C[C@@H]2C[C@H]1CN2c1ncc(C(=O)NO)cn1` [(1S,4S)-isobutyl 5-(5-(hydroxycarbamoyl)pyrimidin-2-yl)-2,5-diazabicyclo[2.2.1]heptane-2-carboxylate], for which the half-inhibitory concentration (IC50) was less than 0.05 µM. In the case of `CC(C)OC(=O)N1C[C@@H]2C[C@H]1CN2c1ncc(C(=O)NO)cn1` [(1S,4S)-isopropyl 5-(5-(hydroxycarbamoyl)pyrimidin-2-yl)-2,5-diazabicyclo[2.2.1]heptane-2-carboxylate], the IC50 is less than 0.05 µM. Same read-out and setting: the value for `O=C(NO)c1cnc(N2C[C@@H]3C[C@H]2CN3C(=O)OCc2cccnc2)nc1` [(1S,4S)-pyridin-3-ylmethyl 5-(5-(hydroxycarbamoyl)pyrimidin-2-yl)-2,5-diazabicyclo[2.2.1]heptane-2-carboxylate] was less than 0.05 µM; that for `CC(C)(C)OC(=O)N1C[C@@H]2C[C@H]1CN2c1ncc(C(=O)NO)cn1` [(1S,4S)-tert-butyl 5-(5-(hydroxycarbamoyl)pyrimidin-2-yl)-2,5-diazabicyclo[2.2.1]heptane-2-carboxylate] was less than 0.05 µM. For the compound `O=C(NO)c1cnc(N2C[C@@H]3C[C@H]2CN3C(=O)OC2CCOCC2)nc1` [(1S,4S)-tetrahydro-2H-pyran-4-yl 5-(5-(hydroxycarbamoyl)pyrimidin-2-yl)-2,5-diazabicyclo[2.2.1]heptane-2-carboxylate], the IC50 is less than 0.05 µM.

Still in this experiment, the particulars now being: Table 10; read-out: HDAC Inhibition (IC50 μM) HDAC Enzyme.
`O=C(NO)c1cnc(NC(c2ccccc2)c2ccccc2)nc1` [2-(benzhydrylamino)-N-hydroxypyrimidine-5-carboxamide]: the IC50 is less than 0.05 µM. The same measure, in the same setting: the value for `O=C(NO)c1cnc(OC(c2ccc(F)cc2)c2ccc(F)cc2)nc1` [2-(bis(4-fluorophenyl)methoxy)-N-hydroxypyrimidine-5-carboxamide] was 0.1 to 1 µM; that for `O=C(NO)c1cnc(NC(c2ccc(F)cc2)c2ccc(F)cc2)nc1` [2-(bis(4-fluorophenyl)methylamino)-N-hydroxypyrimidine-5-carboxamide] was less than 0.05 µM; that for `O=C(NO)c1cnc(ON=C(c2ccccc2)c2ccccc2)nc1` [2-(diphenylmethyleneaminooxy)-N-hydroxypyrimidine-5-carboxamide] was 1 to 10 µM. Same read-out and setting: the value for `O=C(NO)c1cccc(CN2c3ccccc3Sc3ccccc32)c1` [3-((10H-phenothiazin-10-yl)methyl)-N-hydroxybenzamide] was 0.1 to 1 µM. The same measure, in the same setting: for `O=C(NO)c1cccc(CN2c3ccccc3Oc3ccccc32)c1` [3-((10H-phenoxazin-10-yl)methyl)-N-hydroxybenzamide] the value was 1 to 10 µM; for `O=C(NO)c1cccc(CN(c2ccccc2)c2ccccc2)c1` [3-((diphenylamino)methyl)-N-hydroxybenzamide], 1 to 10 µM. In the case of `O=C(CCCN1C(=O)c2cccnc2N(C2CC2)c2ccccc21)NO` [4-(11-cyclopropyl-5-oxo-5H-benzo[b]pyrido[2,3-e][1,4]diazepin-6(11H)-yl)-N-hydroxybutanamide], the IC50 is 1 to 10 µM. Same read-out and setting: the value for `O=C(NO)c1ccc(Cn2c3c(c4ccccc42)CCCCCC3)cc1` [4-((6,7,8,9,10,11-hexahydro-5H-cycloocta[b]indol-5-yl)methyl)-N-hydroxybenzamide] was 0.1 to 1 µM; that for `O=C(NO)c1ccc(CNC2c3ccccc3COc3ccccc32)cc1` (stereo not drawn) [4-((6,11-dihydrodibenzo[b,e]oxepin-11-ylamino)methyl)-N-hydroxybenzamide] was 0.1 to 1 µM.

As for `O=C(NO)c1ccc(CN2c3ccccc3CCc3ccccc32)cc1` [4-((10,11-dihydro-5H-dibenzo[b,f]azepin-5-yl)methyl)-N-hydroxybenzamide], the IC50 is less than 0.05 µM.

Turning to `O=C(NO)c1ccc(CN2C(=O)c3cccnc3N(C3CC3)c3ccccc32)cc1` [4-((11-cyclopropyl-5-oxo-5H-benzo[b]pyrido[2,3-e][1,4]diazepin-6(11H)-yl)methyl)-N-hydroxybenzamide], the IC50 was 0.1 to 1 µM. Same read-out and setting: the value for `O=C(NO)c1ccc(CNC(c2ccccc2)c2ccccc2)cc1` [4-((benzhydrylamino)methyl)-N-hydroxybenzamide] was less than 0.05 µM. The same measure, in the same setting: for `O=C(NO)c1ccc(CN(c2ccccc2)c2ccccc2)cc1` [4-((diphenylamino)methyl)-N-hydroxybenzamide] the value was 0.1 to 1 µM. Same read-out and setting: for `O=C(NO)c1ccc(CN2Cc3ccccc3Oc3ccccc32)cc1` [4-(dibenzo[b,f][1,4]oxazepin-10(11H)-ylmethyl)-N-hydroxybenzamide] the value was less than 0.05 µM. Regarding `O=C(CCCCCN1c2ccccc2CCc2ccccc21)NO` [6-(10,11-dihydro-5H-dibenzo[b,f]azepin-5-yl)-N-hydroxyhexanamide], the IC50 is less than 0.05 µM. Still for that read-out and setting: the value for `O=C(CCCCCN1C(=O)c2cccnc2N(C2CC2)c2ccccc21)NO` [6-(11-cyclopropyl-5-oxo-5H-benzo[b]pyrido[2,3-e][1,4]diazepin-6(11H)-yl)-N-hydroxyhexanamide] was 0.1 to 1 µM; that for `O=C(CCCCCCN1C(=O)c2cccnc2N(C2CC2)c2ccccc21)NO` [7-(11-cyclopropyl-5-oxo-5H-benzo[b]pyrido[2,3-e][1,4]diazepin-6(11H)-yl)-N-hydroxyheptanamide] was 0.05 to 0.1 µM. On to `O=C(CCCCCCN1Cc2ccccc2Oc2ccccc21)NO` [7-(dibenzo[b,f][1,4]oxazepin-10(11H)-yl)-N-hydroxyheptanamide], for which the IC50 fell in the range of 0.1 to 1 µM.

Regarding `O=C(CCCCCCCN1C(=O)c2cccnc2N(C2CC2)c2ccccc21)NO` [8-(11-cyclopropyl-5-oxo-5H-benzo[b]pyrido[2,3-e][1,4]diazepin-6(11H)-yl)-N-hydroxyoctanamide], the IC50 lay within 0.1 to 1 µM. Same read-out and setting: the value for `O=C(CCCCCCC(=O)N1Cc2ccccc2Oc2ccccc21)NO` [8-(dibenzo[b,f][1,4]oxazepin-10(11H)-yl)-N-hydroxy-8-oxooctanamide] was 0.1 to 1 µM; that for `O=C(/C=C/c1ccc(CN2C(=O)c3cccnc3N(C3CC3)c3ccccc32)cc1)NO` [(E)-3-(4-((11-cyclopropyl-5-oxo-5H-benzo[b]pyrido[2,3-e][1,4]diazepin-6(11H)-yl)methyl)phenyl)-N-hydroxyacrylamide] was less than 0.05 µM. Still for that read-out and setting: the value for `O=C(/C=C/c1ccc(CN2c3ccccc3C=Cc3ccccc32)cc1)NO` [(E)-3-(4-(((Z)-5H-dibenzo[b,f]azepin-5-yl)methyl)phenyl)-N-hydroxyacrylamide] was 0.05 to 0.1 µM. The same measure, in the same setting: the value for `O=C(/C=C/c1ccc2c(c1)C=Cc1ccccc1N2CC1CC1)NO` [(E)-3-((Z)-5-(cyclopropylmethyl)-5H-dibenzo[b,f]azepin-2-yl)-N-hydroxyacrylamide] was 0.1 to 1 µM.

Still in this experiment, the particulars now being: read-out: HDAC Inhibtion (IC50 μM) HDAC Enzyme.
In the case of `O=C(NO)c1ccc(C2Nc3ccccc3Oc3ccccc32)cc1` (stereo not drawn) [4-(10,11-dihydrodibenzo[b,f][1,4]oxazepin-11-yl)-N-hydroxybenzamide], the IC50 was less than 0.05 µM. Same read-out and setting: the value for `O=C(NO)c1cnc(N2CCN(C3=Nc4ccccc4Oc4ccc(Cl)cc43)CC2)nc1` [(E)-2-(4-(2-chlorodibenzo[b,f][1,4]oxazepin-11-yl)piperazin-1-yl)-N-hydroxypyrimidine-5-carboxamide] was less than 0.05 µM. As for `O=C(NO)c1ccc(CCNC2=Nc3ccccc3Oc3ccccc32)cc1` [(E)-4-(2-(dibenzo[b,f][1,4]oxazepin-11-ylamino)ethyl)-N-hydroxybenzamide], the IC50 lay in the range of 0.1 to 1 µM. Still for that read-out and setting: the value for `O=C(NO)c1ccc(CNC2=Nc3ccccc3N(C3CC3)c3ccccc32)cc1` [(E)-4-((5-cyclopropyl-5H-dibenzo[b,e][1,4]diazepin-11-ylamino)methyl)-N-hydroxybenzamide] was 0.1 to 1 µM.

Values taken from patent US8399452B2, “Dibenzo[b,f][1,4]oxazepin-11-yl-N-hydroxybenzamides as HDAC inhibitors” (Methylgene Inc., priority 2006, dated 2013).
